What all share (assay type): in vivo
Test [1] has as its system Avena fatua (AVEFA). Put plainly: Post-emergence herbicidal activity, glasshouse pot test. Conditions: Avena fatua, 312 h, rate 250 g/ha, evaluated after 13 days, glasshouse, read-out: Post-emergence activity AVEFA (100=total damage to plant; 0=no damage to plant). The method in brief:
(§1)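 Sow seeds in standard soil in pots; grow 1 day (pre-emergence) or 8 days (post-emergence) at 24/16° C, 14 h light, 65% humidity. Spray aqueous solution from acetone/water 50:50 + 0.5% Tween 20 formulation. Grow on, watering twice daily; score damage 0–100 after 13 days.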

Test [2] deals with Echinochloa crus-galli (ECHCG). Described as above. Conditions: Echinochloa crus-galli, 312 h, rate 250 g/ha, evaluated after 13 days, glasshouse, read-out: Post-emergence activity ECHCG (100=total damage to plant; 0=no damage to plant). In outline: as §1
In test [3] the test system is Alopecurus myosuroides (ALOMY). The description is as above. Conditions: Alopecurus myosuroides, 312 h, rate 250 g/ha, evaluated after 13 days, glasshouse, read-out: Post-emergence activity ALOMY (100=total damage to plant; 0=no damage to plant). In outline:
as §1

Test [4] has as its system Lolium perenne (LOLPE). Described as above. Conditions: Lolium perenne, 312 h, rate 250 g/ha, evaluated after 13 days, glasshouse, read-out: Post-emergence activity LOLPE (100=total damage to plant; 0=no damage to plant). The method in brief:
as §1

Test [5] deals with Avena fatua (AVEFA). Put plainly: Pre-emergence herbicidal activity, glasshouse pot test. Conditions: Avena fatua, 312 h; Rate 250 g/ha; pre-emergence spray; evaluated after 13 days; read-out: Pre-emergence activity AVEFA (100=total damage to plant; 0=no damage to plant). In outline:
as §1

In test [6] the test system is Echinochloa crus-galli (ECHCG). Described as above. Conditions: Echinochloa crus-galli, 312 h; Rate 250 g/ha; pre-emergence spray; evaluated after 13 days; read-out: Pre-emergence activity ECHCG (100=total damage to plant; 0=no damage to plant). The method in brief:
as §1

Test [7] deals with Alopecurus myosuroides (ALOMY). Described as above. Conditions: Alopecurus myosuroides, 312 h; Rate 250 g/ha; pre-emergence spray; evaluated after 13 days; read-out: Pre-emergence activity ALOMY (100=total damage to plant; 0=no damage to plant). In outline:
as §1

The test system of test [8] is Lolium perenne (LOLPE). Described as above. The note with it: Lolium perenne, 312 h; Rate 250 g/ha; pre-emergence spray; evaluated after 13 days; read-out: Pre-emergence activity LOLPE (100=total damage to plant; 0=no damage to plant). The method in brief: as §1

Pest or weed control data for 14 molecules are collected here from patent publication US8865623B2, “Herbicidally active cyclic diones and derivatives thereof, processes for their preparation, compositions, and method of controlling weeds” (Syngenta Limited, priority 2009, dated 2014).

Consider `CCc1ccc(Oc2ccc(Cl)c(C(F)(F)F)c2)cc1C1=C(O)C(C)(C)OC(C)(C)C1=O` [Example A-183], for which the pest or weed control at 250 g/ha was found to be 50% in test [1]; 90% in test [2]; 70% in test [3]; 40% in test [4]; 20% in test [5]; 60% in test [6]. Besides, the values for the pest or weed control at 250 g/ha in test [7] and in test [8] were 30% and 80%, respectively.
Consider `CCc1ccc(Oc2ccc(Cl)c(C)c2)cc1C1=C(O)C(C)(C)OC(C)(C)C1=O` [Example A-184], for which the pest or weed control at 250 g/ha in test [1] is 0%; in test [2] it was 30%; in test [3], 20%; in test [4], 30%; in test [5], 0%; in test [6] it was 50%. For the same molecule, the pest or weed control at 250 g/ha in test [7] was determined as 10%; in test [8] it was 50%.
For `CCc1ccc(Oc2cccc(C(F)(F)F)c2)cc1C1=C(O)C(C)(C)OC(C)(C)C1=O` [Example A-185], the pest or weed control at 250 g/ha in test [1] amounted to 20%; in test [2], 70%; in test [3], 20%; in test [4] it was 30%; in test [5] it was 0%; in test [6], 30%. Also, the pest or weed control at 250 g/ha in test [7] and in test [8] was 0% each time.
Consider `CCc1ccc(Oc2nc3ccc(Cl)cc3o2)cc1C1=C(O)C(C)(C)OC(C)(C)C1=O` [Example A-188], for which the pest or weed control at 250 g/ha in test [1] stood at 100%; in test [2], 100%; in test [3] it was 100%; in test [4], 100%; in test [5], 90%; in test [6] it was 90%. The pest or weed control at 250 g/ha is 90% in test [7] and 100% in test [8].
With `CCc1ccc(Oc2ccc(Br)cc2Cl)cc1C1=C(O)CC2(CCOCC2)CC1=O` [Example A-189], the pest or weed control at 250 g/ha in test [1] was found to be 100%; in test [2], 100%; in test [3], 90%; in test [4] it was 90%; in test [5], 40%; in test [6], 90%. The pest or weed control at 250 g/ha in test [7] stood at 50%; in test [8], 60%.
For `CCc1ccc(Oc2ccc(Cl)cc2Cl)cc1C1=C(O)CC2(CCOCC2)CC1=O` [Example A-190], the pest or weed control at 250 g/ha in test [1] was found to be 90%; in test [2], 100%; in test [3] it was 80%; in test [4], 90%; in test [5], 30%; in test [6], 80%. The pest or weed control at 250 g/ha in test [7] came to 30%; in test [8] it was 50%.
Regarding `CCc1ccc(Oc2ccc3cc(Cl)ccc3n2)cc1C1=C(O)CC2(CCOCC2)CC1=O` [Example A-191], the pest or weed control at 250 g/ha in test [1] came out at 100%; in test [2], 100%; in test [3], 100%; in test [4], 100%; in test [5], 40%; in test [6], 90%. Besides, the pest or weed control at 250 g/ha came to 40% in test [7] and 60% in test [8].
On to `CCc1ccc(Oc2c(F)ncc(Cl)c2F)cc1C1=C(O)C(C)(C)OC(C)(C)C1=O` [Example A-192], for which the pest or weed control at 250 g/ha in test [1] was determined as 10%; in test [2], 40%; in test [3], 0%; in test [4], 10%; in test [5] it was 0%; in test [6], 20%. For the same molecule, the pest or weed control at 250 g/ha in test [7] and in test [8] was 0% throughout.
For `CCc1ccc(Oc2nc3c(Cl)cccc3s2)cc1C1=C(O)C(C)(C)OC(C)(C)C1=O` [Example A-193], the pest or weed control at 250 g/ha in test [1] was determined as 10%; in test [2], 100%; in test [3] it was 80%; in test [4] it was 100%; in test [5] it was 20%; in test [6], 90%. For the same molecule, the pest or weed control at 250 g/ha in test [7] was found to be 30%; in test [8] it was 70%.
With `CCc1ccc(Oc2ccc([N+](=O)[O-])cc2)cc1C1=C(O)C(C)(C)OC(C)(C)C1=O` [Example A-195], the pest or weed control at 250 g/ha was 60% in test [1]; 100% in test [2]; 60% in test [3]; 80% in test [4]; 0% in test [5]; 100% in test [6]. Also, the pest or weed control at 250 g/ha is 30% in test [7] and 40% in test [8].
For the molecule `CCc1ccc(Oc2ccc([N+](=O)[O-])c(C#N)c2)cc1C1=C(O)C(C)(C)OC(C)(C)C1=O` [Example A-196], the pest or weed control at 250 g/ha in test [1] is 0%; in test [2], 20%; in test [3], 0%; in test [4], 10%; in test [5], 0%; in test [6] it was 0%. Further, the pest or weed control at 250 g/ha in test [7] and in test [8] was 0% in each case.
Consider `CCc1ccc(Oc2ccc([N+](=O)[O-])c(C(F)(F)F)c2)cc1C1=C(O)C(C)(C)OC(C)(C)C1=O` [Example A-197], for which the pest or weed control at 250 g/ha was found to be 70% in test [1]; 100% in test [2]; 70% in test [3]; 60% in test [4]; 10% in test [5]; 30% in test [6]. The pest or weed control at 250 g/ha in test [7] amounted to 0%; in test [8], 20%.
For `CCc1ccc(Oc2ccc([N+](=O)[O-])cc2C(F)(F)F)cc1C1=C(O)C(C)(C)OC(C)(C)C1=O` [Example A-198], the pest or weed control at 250 g/ha in test [1] was determined as 60%; in test [2], 100%; in test [3], 70%; in test [4] it was 70%; in test [5] it was 0%; in test [6] it was 60%. The pest or weed control at 250 g/ha was determined as 0% in test [7] and 10% in test [8].
Consider `CCc1ccc(Oc2ccc([N+](=O)[O-])c(C)c2)cc1C1=C(O)C(C)(C)OC(C)(C)C1=O` [Example A-200], for which the pest or weed control at 250 g/ha in test [1] amounted to 10%; in test [2] it was 90%; in test [3], 70%; in test [4] it was 70%; in test [5], 0%; in test [6] it was 50%. Further, the pest or weed control at 250 g/ha in test [7] stood at 20%; in test [8], 60%.
